Assay results from patent US8536190B2, “Treating unwanted ocular conditions using an ascomycin macrolactam” (Allergan, Inc., priority 2007, dated 2013).

Experiments:
Type in all cases: in vivo, human
[1] = Preventative treatment of ocular conditions during weekly docetaxel treatments; conditions: person, medication containing 1.0% pimecrolimus during the entire course of docetaxel treatments
Excerpt: A person is diagnosed with metastatic breast cancer. Their physician decides that the best course of cancer therapy includes weekly docetaxel treatments. In order to reduce or prevent the occurrence of unwanted ocular conditions as a result of the docetaxel treatments, the physician also prescribes a medication containing 1.0% pimecrolimus to be administered during the entire course of docetaxel treatments.

[2] = Treatment of epiphora (canalicular stenosis) after docetaxel chemotherapy; conditions: person, docetaxel every three weeks, medication containing 0.03%, after one week of daily treatment
Excerpt: A physician diagnosis a person complaining of excessive tearing with epiphora. The physician determines that the cause of this excessive tearing was canalicular stenosis, and believes that this ocular condition was brought on by the person's prostate cancer therapy, which included docetaxel treatments every three weeks. The patient receives a medication containing 0.03% […].

[3] = Treatment of epiphora (punctal stenosis) in a patient undergoing docetaxel treatments; conditions: person, docetaxel every three weeks, medication containing 0.1% tacrolimus, after one week of daily treatment
Excerpt: A person undergoing docetaxel treatments every three weeks as part of their breast cancer therapy developed epiphora during the seventh week. […] The patient receives a medication containing 0.1% tacrolimus.

CC[C@@H]1/C=C(\C)C[C@H](C)C[C@H](OC)[C@H]2O[C@@](O)(C(=O)C(=O)N3CCCC[C@H]3C(=O)O[C@H](/C(C)=C/[C@@H]3CC[C@H](Cl)[C@H](OC)C3)[C@H](C)[C@@H](O)CC1=O)[C@H](C)C[C@@H]2OC [pimecrolimus, Pimecrolimus]
occurrence of epiphora or symptoms of an ocular condition [1]: does not exhibit epiphora or show any symptoms of an ocular condition

Ascomycin [acromycin]
excessive tearing (epiphora) after treatment [2]: the excessive tearing subsides

Tacrolimus
excessive tearing (epiphora) after treatment [3]: the excessive tearing subsides
